We go through ten compounds from ChEMBL document CHEMBL5107957, “Trends in targeting Bcl-2 anti-apoptotic proteins for cancer treatment” (Eur J Med Chem, 2022).

Data set [1] is described as follows: Binding affinity to recombinant Bcl-2 D129L mutant (unknown origin) using peptide probe incubated for 2 hrs by fluorescence based assay. The arrangement: species or system Homo sapiens.
The nature of data set [2]: Binding affinity to recombinant Bcl-2 V113G mutant (unknown origin) using peptide probe incubated for 2 hrs by fluorescence based assay. The arrangement: species or system Homo sapiens.
Data set [3] deals with T1, Bcl-2-like protein 1 (Homo sapiens, UniProt Q07817). The data set can be described thus: Displacement of synthetic peptide tracer conjugated to fluorescein isothiocyanate from C-terminal 6xHis-tagged Bcl-xL (1 to 209 residues) (unknown origin) preincubated for 1 hr followed by tracer addition measured after 20 mins by fluorescence polarization assay. A general note: Polarisation of emitted light reports the rotation of a fluorescent probe.
T1 sequence (Q07817 whole entry, the tested form may be a part): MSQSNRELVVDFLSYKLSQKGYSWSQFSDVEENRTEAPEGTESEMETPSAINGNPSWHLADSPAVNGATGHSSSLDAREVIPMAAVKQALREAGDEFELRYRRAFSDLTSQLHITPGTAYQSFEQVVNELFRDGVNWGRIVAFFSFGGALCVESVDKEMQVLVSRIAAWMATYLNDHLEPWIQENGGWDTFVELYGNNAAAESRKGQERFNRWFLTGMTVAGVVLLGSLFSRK

The nature of data set [4]: Solubility of the compound in aqueous buffer at physiological pH. The class given is physicochemical.
The target of data set [5] is T2, Apoptosis regulator Bcl-2 (Homo sapiens, UniProt P10415). The data set can be described thus: Displacement of synthetic peptide tracer conjugated to fluorescein isothiocyanate from C-terminal 6xHis-tagged Bcl-2 (1 to 204 residues) (unknown origin) preincubated for 1 hr followed by tracer addition measured after 20 mins by fluorescence polarization assay.
T2 sequence (P10415 whole entry, the tested form may be a part): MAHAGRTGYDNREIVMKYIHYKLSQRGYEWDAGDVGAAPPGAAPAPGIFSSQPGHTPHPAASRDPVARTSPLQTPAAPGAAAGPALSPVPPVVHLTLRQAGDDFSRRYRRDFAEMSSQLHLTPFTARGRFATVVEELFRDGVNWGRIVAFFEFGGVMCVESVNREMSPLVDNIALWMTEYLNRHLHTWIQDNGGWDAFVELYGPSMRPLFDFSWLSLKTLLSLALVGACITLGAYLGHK
Data set [6] deals with T1, Bcl-2-like protein 1. The data set can be described thus: Binding affinity to human Bcl-xL assessed as inhibition constant incubated for 15 mins by competition fluorescence polarization assay.
Data set [7] has as its target T2, Apoptosis regulator Bcl-2. The data set can be described thus: Binding affinity to human Bcl-2 assessed as inhibition constant incubated for 15 mins by competition fluorescence polarization assay.
The target in data set [8] is T3, Induced myeloid leukemia cell differentiation protein Mcl-1 (Homo sapiens, UniProt Q07820). The data set can be described thus: Binding affinity to human Mcl-1 assessed as inhibition constant incubated for 15 mins by competition fluorescence polarization assay.
T3 sequence (Q07820 whole entry): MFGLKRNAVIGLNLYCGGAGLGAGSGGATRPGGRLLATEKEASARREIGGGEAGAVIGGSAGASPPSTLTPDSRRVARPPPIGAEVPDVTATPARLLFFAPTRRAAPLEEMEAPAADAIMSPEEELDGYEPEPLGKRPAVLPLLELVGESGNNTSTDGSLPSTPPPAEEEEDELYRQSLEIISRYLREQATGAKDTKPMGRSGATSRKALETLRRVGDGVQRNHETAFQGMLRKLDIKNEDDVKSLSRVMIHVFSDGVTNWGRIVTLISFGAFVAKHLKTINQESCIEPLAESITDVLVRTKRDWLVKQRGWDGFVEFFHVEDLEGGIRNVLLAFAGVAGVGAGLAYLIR
Data set [9] concerns the target T4, von Hippel-Lindau disease tumor suppressor/Bcl-2-like protein 1 (Homo sapiens) (UniProt Q07817+P40337). Description: PROTAC activity at VHL/Bcl-xL in human THP-1 cells assessed as induction of Bcl-xL degradation incubated for 24 hrs by Western blot assay relative to control. The class given is cell-based. A general note: A western blot detects proteins with antibodies after separation by electrophoresis.

In data set [10] the target is T5, von Hippel-Lindau disease tumor suppressor/Bcl-2-like protein 1 (Homo sapiens, UniProt P40337+Q07817). Description: PROTAC activity at VHL/Bcl-xL in human THP-1 cells assessed as induction of Bcl-xL degradation incubated for 24 hrs by Western blot assay. The class given is cell-based.
T5 sequence (Q07817 whole entry): as the sequence (Q07817 whole entry, the tested form may be a part) above
T5 sequence (P40337 whole entry): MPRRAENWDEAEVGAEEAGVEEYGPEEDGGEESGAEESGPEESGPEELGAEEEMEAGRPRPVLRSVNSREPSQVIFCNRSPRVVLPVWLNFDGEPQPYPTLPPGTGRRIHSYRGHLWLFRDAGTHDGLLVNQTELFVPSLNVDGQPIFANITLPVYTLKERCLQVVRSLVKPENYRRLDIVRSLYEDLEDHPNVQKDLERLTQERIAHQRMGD
The target of data set [11] is T1, Bcl-2-like protein 1. The data set can be described thus: Binding affinity to Bcl-xL (unknown origin) assessed as inhibition constant by fluorescence polarization assay.
Data set [12] can be described thus: Cytotoxicity against human platelets assessed as cell growth inhibition incubated for 24 hrs. In kind it is toxicity, cell-based, Platelet.
Data set [13] concerns MOLT-4. Description: Cytotoxicity against human MOLT-4 cells assessed as cell growth inhibition incubated for 72 hrs. The following applies: MOLT-4, 72 h. The class given is functional, cell-based.
Data set [14] concerns the target T3, Induced myeloid leukemia cell differentiation protein Mcl-1. Description: Binding affinity to Mcl-1 (unknown origin) assessed as inhibition constant using 5-FAM-QEDIIRNIARHLAQVGDSMDRSIPPG as substrate.
For data set [15], the target named is T2, Apoptosis regulator Bcl-2. The data set can be described thus: Binding affinity to Bcl-2 (unknown origin) assessed as inhibition constant using 5-FAM-QEDIIRNIARHLAQVGDSMDRSIPPG as substrate.
A short description of data set [16]: Selectivity ratio of IC50 for human platelets to IC50 for human MOLT-4 cells. The class given is toxicity. The following applies: human platelets and human MOLT-4 cells.
The target in data set [17] is Protein cereblon/Bcl-2-like protein 1 (Homo sapiens) (UniProt Q07817+Q96SW2). The data set can be described thus: PROTAC activity at CRBN/Bcl-xL in human MOLT-4 cells assessed as induction of Bcl-xL degradation at 100 nM incubated for 16 hrs by Western blot assay relative to control. In kind it is cell-based.
Chain of Protein cereblon/Bcl-2-like protein 1 (Homo sapiens) (Q07817 whole entry, looked up): as the sequence (Q07817 whole entry, the tested form may be a part) above
Chain of Protein cereblon/Bcl-2-like protein 1 (Homo sapiens) (Q96SW2 whole entry, looked up): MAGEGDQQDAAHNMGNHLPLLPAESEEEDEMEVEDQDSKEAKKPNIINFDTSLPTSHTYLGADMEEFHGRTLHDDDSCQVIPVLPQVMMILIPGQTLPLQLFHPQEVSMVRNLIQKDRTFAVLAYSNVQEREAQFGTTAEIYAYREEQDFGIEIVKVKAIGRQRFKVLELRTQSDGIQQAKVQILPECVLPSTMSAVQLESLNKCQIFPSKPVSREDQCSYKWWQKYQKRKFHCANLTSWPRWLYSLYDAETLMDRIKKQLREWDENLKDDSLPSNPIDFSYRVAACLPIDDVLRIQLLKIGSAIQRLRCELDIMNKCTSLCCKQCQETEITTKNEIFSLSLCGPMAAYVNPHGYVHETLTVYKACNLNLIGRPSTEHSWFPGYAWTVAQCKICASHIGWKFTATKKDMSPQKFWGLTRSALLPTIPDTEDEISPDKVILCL
In data set [18] the target is T2, Apoptosis regulator Bcl-2. Description: Binding affinity to Bcl-2 (unknown origin) assessed as inhibition constant.
The target of data set [19] is T1, Bcl-2-like protein 1. The data set can be described thus: Binding affinity to Bcl-xL (unknown origin) assessed as inhibition constant.
The target of data set [20] is T5, von Hippel-Lindau disease tumor suppressor/Bcl-2-like protein 1. Description: PROTAC activity at VHL/Bcl-xL in human MOLT-4 cells assessed as induction of Bcl-xL degradation incubated for 16 hrs by immunoblot assay. The class given is cell-based.
The target in data set [21] is T4, von Hippel-Lindau disease tumor suppressor/Bcl-2-like protein 1 (Homo sapiens). Description: PROTAC activity at VHL/Bcl-xL in human MOLT-4 cells assessed as induction of Bcl-xL degradation incubated for 16 hrs by immunoblot assay relative to control. In kind it is cell-based.

T4 sequence (P40337 whole entry, looked up): as the sequence (P40337 whole entry) above
T4 sequence (Q07817 whole entry, looked up): as the sequence (Q07817 whole entry, the tested form may be a part) above

Regarding `Cc1c(N(C(=O)c2cc(-c3cc(Cl)ccc3C(=O)N3Cc4ccccc4C[C@H]3CN3CCOCC3)n(C)c2C)c2ccc(O)cc2)cc(C#N)n1C` [VOB-560], the Ki (as a rule, a dissociation constant, usually derived from enzyme kinetics or from competition with a known ligand) in data set [1] came to 1 nM; in [2], 9.6 nM.

Turning to `CN(CCO)CC[C@H](CSc1ccccc1)Nc1ccc(S(=O)(=O)NC(=O)c2ccc(N3CCC([C@@H](O)c4ccccc4-c4ccc(Cl)cc4)CC3)cc2)cc1S(=O)(=O)C(F)(F)F`, the 50% inhibitory concentration (IC50) (as a rule, the concentration that inhibits the measured activity by half) in data set [3] came out at 4.5 nM; in data set [5], 3.9 nM. Further, the solubility (usually the concentration that dissolves in the medium under given conditions) in data set [4] was less than 1 µg/mL.

For `CCN(CC)C[C@@H](O)CNc1ccc(NC[C@H]2CO2)c2c1C(=O)c1ccccc1C2=O`, the Ki is more than 500 nM in data set [6], 3.3 nM in data set [7] and more than 550 nM in data set [8].

Regarding `Cc1ncsc1-c1ccc(CNC(=O)[C@@H]2C[C@@H](O)CN2C(=O)[C@@H](NC(=O)CCOCCOCCOCCOCCOCCOCC#Cc2ccc(OCCCc3sc(N4CCc5cccc(C(=O)Nc6nc7ccccc7s6)c5C4)nc3C(=O)O)cc2)C(C)(C)C)cc1`, in data set [9], the Emax – broadly, the size of the effect at its maximum, as opposed to the concentration needed – was 76%. For the same compound, the EC50 – broadly, the concentration that produces a half-maximal response – in data set [10] stood at 4.8 nM.

For `Cc1c(S(C)(=O)=O)c(-c2cc(F)cc(N3CCN(c4ccc(NS(=O)(=O)c5ccc(N[C@H](CCN6CCC(O)CC6)CSc6ccccc6)c(S(=O)(=O)C(F)(F)F)c5)cc4)CC3)c2)c(-c2ccc(Cl)cc2)n1C(C)C`, in data set [11], the Ki was less than 1 nM.

As for `CN(C)CC#Cc1ccc(OCCCc2sc(N3CCc4cccc(C(=O)Nc5nc6ccccc6s5)c4C3)nc2C(=O)O)c(F)c1` [A-1155463], the IC50 at 24 h in data set [12] was found to be 7.1 nM. For the same compound, the IC50 in data set [13] amounted to 6.2 nM.

For the compound `N#Cc1ccc(CN2Cc3c(cc(Br)c(OCc4ccc(-c5ccccc5)cc4)c3Br)C[C@H]2C(=O)NS(=O)(=O)c2ccc(Cl)c([N+](=O)[O-])c2)cc1`, the values for the Ki in [14] and in data set [15] were 0.35 nM and 0.45 nM, respectively.

For `O=C1CCC(N2C(=O)c3cccc(NCCOCCOCc4cn(CCCC(=O)N5CCN(CC#Cc6ccc(OCCCc7sc(N8CCc9cccc(C(=O)Nc%10nc%11ccccc%11s%10)c9C8)nc7C(=O)O)c(F)c6)CC5)nn4)c3C2=O)C(=O)N1` (stereo not drawn), the selectivity ratio in data set [16] came to 22. Further, the half-inhibitory concentration (IC50) at 24 h in data set [12] was 1140 nM. Besides, the IC50 in data set [13] worked out at 51 nM. For the same compound, the maximal effect (Emax) in [17] came out at 85%.

Regarding `Cc1c(S(C)(=O)=O)c(-c2cc(F)cc(N3CCN(c4ccc(NS(=O)(=O)c5ccc(N[C@H](CCN6CCC(C(=O)OCCCP(=O)(O)O)CC6)CSc6ccccc6)c(S(=O)(=O)C(F)(F)F)c5)cc4)CC3)c2)c(-c2ccc(Cl)cc2)n1C(C)C` [PELCITOCLAX], the Ki in [18] and in [19] was less than 1 nM in each case.

With `Cc1ncsc1-c1ccc([C@H](C)NC(=O)[C@@H]2C[C@@H](O)CN2C(=O)[C@@H](NC(=O)CCCCCC(=O)N2CCN(CC[C@H](CSc3ccccc3)Nc3ccc(S(=O)(=O)NC(=O)c4ccc(N5CCN(CC6=C(c7ccc(Cl)cc7)CCC(C)(C)C6)CC5)cc4)cc3S(=O)(=O)C(F)(F)F)CC2)C(C)(C)C)cc1` [DT-2216], in data set [20], the concentration for a half-maximal effect (EC50) was 63 nM. Also, the Emax in [21] turned out to be 90.8%.
